Test results from patent publication US20230287061A1, “NEW ANTIMICROBIAL PEPTIDES” (priority 2020, published 2023).
Ends that are not written are not given here.

System: B. cereus

Sequence ALLKVLFSWFRKHNSRRKNLPAKN [Seq ID no2] has an MIC of 256 µg/mL.
